Residues, ends and D or L forms follow the SMILES beside them. *: point of attachment. Cbz = O=C(OCc1ccccc1)*; CH2F = FC*
Key:
[1] = target: T1, RIPK1 (Homo sapiens, UniProt Q13546); experiment: RIPK1 degradation by Western blot in Jurkat cells; format: cell-based; conditions: 4 h pretreatment followed by LD4172
T1 construct: whole-cell lysates were prepared using a lysis buffer; endogenous in cells; host or cells: Jurkat
T1 sequence (Q13546 1-671): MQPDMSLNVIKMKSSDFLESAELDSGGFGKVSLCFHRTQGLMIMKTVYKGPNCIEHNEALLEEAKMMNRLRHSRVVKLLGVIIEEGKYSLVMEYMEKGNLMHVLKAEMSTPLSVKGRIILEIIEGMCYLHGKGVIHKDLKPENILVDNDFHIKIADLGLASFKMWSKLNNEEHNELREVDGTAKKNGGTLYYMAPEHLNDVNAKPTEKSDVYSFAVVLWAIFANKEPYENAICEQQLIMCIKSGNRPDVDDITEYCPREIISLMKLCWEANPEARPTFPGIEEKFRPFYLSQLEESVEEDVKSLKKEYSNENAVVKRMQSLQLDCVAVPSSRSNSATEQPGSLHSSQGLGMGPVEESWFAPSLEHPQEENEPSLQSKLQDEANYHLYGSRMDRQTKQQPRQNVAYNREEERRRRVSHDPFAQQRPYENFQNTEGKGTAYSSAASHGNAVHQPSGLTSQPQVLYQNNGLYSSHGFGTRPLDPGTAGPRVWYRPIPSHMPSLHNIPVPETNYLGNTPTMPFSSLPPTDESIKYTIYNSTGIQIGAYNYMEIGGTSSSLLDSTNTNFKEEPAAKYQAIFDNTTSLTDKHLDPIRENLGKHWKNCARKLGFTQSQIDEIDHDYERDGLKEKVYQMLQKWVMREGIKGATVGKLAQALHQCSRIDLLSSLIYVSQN
Procedure: (§1) Cells were seeded into six-well plates at a density of 5 × 10^5 cells/mL in 2 mL of complete culture medium. Following an overnight adaptation period, cells were treated with serially diluted LD4172 compounds for 24 h. After treatment, whole-cell lysates were prepared using a lysis buffer (1×RIPA supplemented with protease and phosphatase inhibitor cocktail). Protein concentrations in the lysates were measured using the BCA protein assay. Subsequently, equal amounts of protein (20 µg) from each sample were loaded onto a sodium dodecyl sulfate-polyacrylamide gel and separated by electrophoresis (Bio-Rad) at 120 V for 1.5 h. The separated proteins were then transferred to a polyvinylidene fluoride (PVDF) membrane using a Transblot Turbo system (Bio-Rad).
(§2) After blocking for 1 h at room temperature in 1% BSA-TBST, the membranes were incubated overnight at 4 °C with specific primary antibodies (diluted at 1:1000 in TBST) targeting the proteins of interest, including anti-RIPK1 (3493, Cell Signaling Technology (CST)), anti-cleaved caspase 3 (9661, CST), anti-cleaved caspase7 (8438, CST), anti-cleaved PARP (5625, CST), anti-HMGB1 (3935, CST), anti-calreticulin (12238, CST), and anti-β-actin (4970, CST). […] All western blots were processed and quantified using ImageJ software, and protein levels were normalized to β-actin loading controls.

[2] = target: T2, RIPK1 (Mus musculus, UniProt Q60855); experiment: RIPK1 degradation by Western blot in B16F10 cells; format: cell-based; conditions: 4 h pretreatment followed by LD4172
T2 construct: endogenous in cells; host or cells: B16F10
T2 sequence (Q60855 1-656): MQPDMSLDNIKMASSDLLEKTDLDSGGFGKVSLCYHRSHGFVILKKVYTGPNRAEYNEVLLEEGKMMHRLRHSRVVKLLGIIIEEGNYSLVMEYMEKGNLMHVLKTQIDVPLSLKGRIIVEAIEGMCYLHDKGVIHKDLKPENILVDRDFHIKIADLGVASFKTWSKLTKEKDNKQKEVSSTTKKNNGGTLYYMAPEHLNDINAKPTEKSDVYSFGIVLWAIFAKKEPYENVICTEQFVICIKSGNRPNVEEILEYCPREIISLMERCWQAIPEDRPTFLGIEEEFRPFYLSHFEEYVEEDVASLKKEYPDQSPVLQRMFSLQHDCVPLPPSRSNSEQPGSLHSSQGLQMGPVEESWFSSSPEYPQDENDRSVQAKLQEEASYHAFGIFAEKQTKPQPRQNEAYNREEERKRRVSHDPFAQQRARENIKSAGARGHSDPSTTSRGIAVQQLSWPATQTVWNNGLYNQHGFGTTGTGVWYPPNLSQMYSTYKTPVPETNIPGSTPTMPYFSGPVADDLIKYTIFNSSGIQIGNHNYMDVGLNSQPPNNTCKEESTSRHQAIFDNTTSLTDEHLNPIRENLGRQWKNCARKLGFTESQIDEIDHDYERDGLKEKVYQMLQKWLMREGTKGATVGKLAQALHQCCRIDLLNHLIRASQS
Procedure: as §1, §2

[3] = system: NF-κB; experiment: NF-κB reporter assay in B16F10 cells; format: cell-based, mouse; conditions: TNFα 100 ng/mL, compound 1 μM
Procedure: One million B16F10 cells were seeded in T25 flask. The next day, cells were transfected with the NanoLuc Reporter Vector with NF-κB Response Element (pNL3.2.NF-kB-RE; Promega; Cat. No. N1111) using Lipofectamine 3000 transfection reagent (Invitrogen) at a ratio of 1:3, DNA:Lipofectamine. After 24 h, cells were collected and seeded at 2000 cells per well in triplicate in an opaque 96 well plate. 24 h later the media was discarded and replaced with fresh DMEM media and treated with indicated cytokine cocktail for 24 h. Reporter expression was read out using the Nano-Glo Luciferase Assay System (Promega) according to the manufacturer’s instruction.

[4] = system: B16F10 cells; experiment: TNFα-mediated apoptosis in B16F10 cells (Annexin V/PI, caspase 3/7, PARP); format: cell-based, mouse; conditions: 72 h
Procedure: Fig. 3 LD4172 sensitizes B16F10 cells to TNFα-mediated apoptosis. B16F10 cells were treated with or without TNFα (100 ng/mL), Z-VAD-FMK (25 μM), LD4172 (1 μM), and/or T2I (1 μM) for 72 h. A NF-κB activity in B16F10 cells expressing a NanoLuc reporter for NF-κB response. Data represent the mean NF-κB activity ± SD (n = 3 biologically independent samples from two independent experiments). Statistical significance was determined using a two-tailed unpaired t-test, with P values indicated. B Representative flow cytometry dot plots showing apoptosis in B16F10 cells from three independent experiments (n = 3 biologically independent samples per experiment). […] Cell death was quantified by PI uptake using the Cytation 5 imager. D Top: Percentage of PI+ B16F10 cells after 72 h of the indicated treatments, calculated as PI+ (%) = (Number of PI+ cells/Total cells) × 100%, using the Cytation 5 imager. […] Statistical significance was determined using a two-tailed unpaired t-test, with P values indicated. […] E Top: Quantification of extracellular ATP levels secreted by B16F10 cells. Data represent mean extracellular ATP levels ± SD (n = 4 biologically independent samples from one experiment), with statistical significance determined by a two-tailed unpaired t-test, and P values indicated. […]

[5] = system: B16F10 tumors; experiment: B16F10 syngeneic tumor model; format: in vivo, C57BL/6J mice; conditions: compound 20 mg/kg i.p. daily plus anti-PD1 100 µg every 3 days
Procedure: To establish a syngeneic mouse model, 3 × 10^5 B16F10 cells resuspended in PBS were mixed 1:1 with Matrigel (354262, Corning) and subcutaneously injected into the right flank of 7-week-old wild-type female C57BL/6J mice on day 0. Tumor sizes were measured on day 6, and mice were grouped such that the average tumor volume was ~100 mm³. Treatments began on day 7. Antibodies, including anti-PD1 (100 μg, BE0146, BioXcell) and anti-CD8 (500 μg, BE0004, BioXcell), were administered intraperitoneally every 3 days in 100 μL volumes. The RIPK1 degrader LD4172 and RIPK1 kinase inhibitor T2I were delivered in 200 μL of vehicle solution (30% PEG400, 5% Tween-80, 5% DMSO) daily via intraperitoneal injection (20 mg/kg). T-cell depletion or blocking was confirmed by flow cytometry in tumor-bearing mice. Tumors were measured every 3 days starting from day 7 post-injection until euthanasia. Mice were euthanized via CO2 inhalation when the tumor size reached 1.5 cm in the longest dimension or if severe necrosis was observed. Tumor volume was calculated using the formula: (L × W ²)/2, where L represents the length and W the width. To comply with ethical guidelines and ensure data quality, animals were humanely euthanized either when tumors reached the maximum permitted size or immediately before flow cytometry analysis, which required fresh tumor tissues. […]

| SMILES | LD4172-induced RIPK1 degradation after pretreatment [1] | LD4172-induced RIPK1 degradation after pretreatment [2] | further results |
| --- | --- | --- | --- |
| NS(=O)(=O)OC[C@@H]1C[C@@H](n2ccc3c(N[C@H]4CCc5ccccc54)ncnc32)C[C@@H]1O [MLN4924] | reversed | reversed | – |
| CCn1cc(-c2ccc3c(c2)CCN3C(=O)Cc2cccc(OC(F)(F)F)c2)c2c(N)ncnc21 [T2I] | – | – | TNF-α-induced NF-κB activity [3]: not; TNFα-mediated apoptosis ([4]; TNFα 100 ng/mL, compound 1 μM): did not trigger TNFα-mediated apoptosis; tumor response in combination with anti-PD1 [5]: failed to sensitize B16F10 tumors to anti-PD1 treatment |
| COC(=O)C[C@H](NC(=O)[C@H](C)NC(=O)[C@@H](NC(=O)OCc1ccccc1)C(C)C)C(=O)CF [Z-VAD-FMK] (Cbz-Val-Ala-Asp(OMe)-CH2F) | – | – | reversal of apoptosis induced by TNFα and LD4172 ([4]; Z-VAD-FMK 25 μM): reversed |
| CC(C)C[C@H](NC(=O)[C@H](CCc1ccccc1)NC(=O)CN1CCOCC1)C(=O)N[C@@H](Cc1ccccc1)C(=O)N[C@@H](CC(C)C)C(=O)[C@@]1(C)CO1 [carfilzomib] | reversed | reversed | – |

Source: PMC11649918, “Development of a RIPK1 degrader to enhance antitumor immunity” (Nature Communications, 2024)
